Experimental data reported in patent publication US20040138137A1, “Alloferons - immunomodulatory peptides” (Entopharm Co., Ltd., priority 1999, published 2004).
Where two headings read alike, the source gives them in different places. Marks after values point to notes of the source that are not given here. Ends that are not written are not given here.

Key:
[1] = tested on: human influenza virus A strain A/Aichi/2/68 (cerotype H3N2); format: in vivo, mice
Acute toxicity in mice = format: in vivo; conditions: 500-6000 mg/kg in mice
Acute toxicity in rats = format: in vivo
[2] = Subacute and chronic toxicity in rats; format: in vivo; conditions: 0.2, 2 and 20 mg/kg once a day during 90 days
mouse germ cells = assay: Dominant lethal mutations in the mouse germ cells; format: in vivo; conditions: 15 mg/kg
Salmonella tiphimurium = assay: Ames test; format: cell-based; conditions: 0.1-1000 microgram/Petri dish; 3 test line
E. coli test-line PQ37 = assay: DNA SOS-reparation; format: cell-based
[3] = Toxicity evaluation, panel of in vitro and in vivo models (overall statement); conditions: in vivo and in vitro studies
Procedure: The toxicity of alloferon was tested using a panel of in vitro and in vivo models.

[4] = tested on: mouse spleen lymphocytes; K562 human leukemia cells
Procedure: (§1) H3-uridine labeled K562 human leukemia cells were used as targets for a cytotoxic lymphocytes' attack. […] Then the proportion of killed and normal target cells and the corresponding cytotoxicity indices were determined in control and experimental groups.

[5] = therapeutic and 10-fold administration
fat cells = conditions: therapeutic and 10-fold administration
[6] = therapeutic and 10-fold administration; remark: listed apart in the source
[7] = therapeutic and 10-fold administration; remark: listed apart in the source
[8] = subcutaneous injection 1.5 and 15 mg/kg into pregnant rats
mouse bone marrow cells = conditions: single dose 0.5 and 15 mg/kg and fivefold dose 0.5 mg/kg
[9] = tested on: peripheral blood lymphocytes (PBL) in healthy donors; K562 cell line; assay: PBL cytotoxicity in healthy donors, K562 targets; conditions: for Cytotoxicity index, M ± m, %: healthy donor 16, K562, 5 ng/ml, lymphocyte:target 20:1, control −3.5 ± 7.4; for Donors responding by statistically approved increase of cytotoxic activity against K562 or A431: out of 17 healthy donors
Procedure: as §1
(§2) The lymphocytes were diluted up to 2×10^6 cells/ml and immediately used for the cytotoxicity analysis.
(§3) Two kinds of target cells were used in the study simultaneously: the K562 cell line originated from erythromyeloid leukemia cells and the A431 cell line originated from the solid colorectal tumor. The proportion of lymphocytes and target cells (E/T ratio) in the trial was 20:1.

[10] = tested on: peripheral blood lymphocytes (PBL) in cancer patients; A431; assay: PBL cytotoxicity in cancer patients, A431 targets; conditions: for Cytotoxicity index, %: A431, lymphocyte:target 20:1
Procedure: as §1, §2, §3

[11] = tested on: human peripheral blood lymphocytes; K562 cancer cells; assay: Cytotoxic activity of human peripheral blood lymphocytes against K562 cancer cells
Procedure: as §1, §2

[12] = tested on: peripheral blood lymphocytes (PBL) in healthy donors; A431 cell line; conditions: 17 healthy donors
Procedure: as §1, §2, §3

[13] = tested on: peripheral blood lymphocytes (PBL) in cancer patients; K562; conditions: 18 cancer patients; for Positive responses proportion, K562 or A531: either target
Procedure: as §1, §2, §3

[14] = tested on: human peripheral blood lymphocytes; A431 tumor cells; assay: Cytotoxic activity of human PBL against A431 tumor cells, alloferon 1 analogs; conditions: 5 ng/ml; A431 targets; control −6.0 ± 8.1
Procedure: The mononuclear fraction isolated from the blood of healthy donors and target cell of the A431 cell line were co-incubated in the presence of one of the preparations: alloferon 1, alloferon 3, alloferon 4 or interferon-alpha 2b (positive control). The preparation's concentration in all cases was 5 ng/ml. Cytotoxicity index excess over the untreated control was used as the efficacy criterion.

[15] = patient 11, Uterus cancer, control 93.3 ± 1.0
[16] = patient 14, Non-Hodgkin lymphoma, control −40.0 ± 20.5
[17] = 17 healthy donors, K562 or A431

In the case of `CC(N)C12CC3CC(CC(C3)C1)C2` (stereo not drawn) [Remantadin], the “Mortality 10 days after virus inoculation, %” value ([1]; 1000 microgram per mouse per os, control 65) is reported as 5*** % and the “Protection from lethal pulmonary lesions caused by the influenza virus” value ([1]; mouse, in vivo, sc) is reported as “effectively protected”.

With HGVSGHGQHGVHG [Alloferon 1] the “Acute toxicity, animal growth, feeding, macroscopical structure of organs, injection place” value (Acute toxicity in mice) was “highest dose. No changes in animal growth, feeding,”, the “Acute toxicity, mortality” value (Acute toxicity in mice; single subcutaneous and intragastric administration) was “Mortality was not registered in any dose including” and the “Acute toxicity, animal growth, feeding, macroscopical structure of organs, injection place” value (Acute toxicity in rats; 300-5000 mg/kg in rats) was “highest dose. No changes in animal growth, feeding,”. The Toxic/therapeutic dose ratio (Acute toxicity in rats; rats) was “ratio >35700 times”, the “Acute toxicity, mortality” value (Acute toxicity in rats; single subcutaneous and intragastric administration, 300-5000 mg/kg in rats) was “Mortality was not registered in any dose including” and the “Subacute and chronic toxicity, mortality” value [2] was “None animal died during 90 day period”. The “Subacute and chronic toxicity, physiological, hematological, biochemical, pathomorphological and histological data” value [2] was “testicles, ovary) data did not show negative changes”, the “Dominant lethal mutations in the mouse germ cells” value (mouse germ cells) was “Alloferon in the dose 15 mg/kg did not induce” and the “Ames test, gene mutations” value (Salmonella tiphimurium) was “microgram/Petri dish did not induce gene mutations”. For the same compound, the “DNA SOS-reparation, DNA-damaging activity” value (E. coli test-line PQ37) was “Alloferon has no DNA-damaging activity in the E. coli”, the “Overall toxicity (words)” value ([3]; listed as Alloferon) was “practically nontoxic” and the “Overall toxicity (words)” value ([3]; listed as alloferon) was “No signs of acute or chronic toxicity”. The “Overall toxicity (words)” value ([3]; listed as alloferon 1) was “Neither an acute nor a chronic toxicity”, the “Effective in vitro concentration, stimulation of mouse spleen lymphocytes' cytotoxic activity” value [4] was 0.05 to 50 ng/mL and the Anaphylactic shock (10-fold therapeutic dose, registered in 1 male, 12 guinea pigs) was “dosage. Minimal response (short term unrest, nose”. For the same compound, the Anaphylactic shock (therapeutic dosage, guinea pigs) was “No signs of anaphylaxy were found at therapeutic”, the Immune complexes reaction [5] was “The reaction was not found under alloferon” and the “Indirect reaction of fat cells degranulation” value (fat cells) was “Fat cells degranulation rate was not changed under”. For the same compound, the Conjunctive probe [6] was “The reaction was not found under alloferon”, the “Reaction of delayed hypersensitivity” value [7] was “The reaction was not found under alloferon” and the “Embriotoxicity and influence on the reproductive function” value [8] was “Alloferon administration did not cause negative”. For the same compound, the “Chromosome aberrations in the mouse bone marrow cells” value (mouse bone marrow cells) was “fivefold dose 0.5 mg/kg did not induce chromosome”, the “Cytotoxicity index, M ± m, %” value [9] was 18.5 ± 1.7 % and the “Donors responding by statistically approved increase of cytotoxic activity against K562 or A431” value [9] was 10 donors. The “Effective in vitro concentration, stimulation of peripheral blood lymphocytes' cytotoxic activity in cancer patients” value ([10]; cancer patients) was 5 ng/mL, the “Cytotoxicity index, %” value [10, 15] was 94.3 ± 0.4% and the “Cytotoxicity index, %” value [10, 16] was 15.3 ± 4.8 %. The “Concentration from which PBLs' cytotoxicity against K562 was significantly increased” value [11] was no less than 0.0005 nanogram/ml and the “Effective in vitro concentration, stimulation of human peripheral blood lymphocytes' cytotoxic activity” value [11] was 0.0005 to 500 ng/mL.

For Interferon-alpha 2b, the “Positive responses proportion, A431” value [12] was 4/17 = 24%, the “Positive responses coincidence: Donors selectively sensitive to the preparation” value ([13]; K562 or A431) was 4/18 = 22% and the “Positive responses coincidence: Interferon and alloferon sensitive donors” value ([13]; K562 or A431) was 7/18 = 38%. For the same compound, the “Positive responses proportion, K562 or A531” value ([13]; listed as Interferon) was 10/18 = 56%, the “Positive responses proportion, K562 or A531” value ([13]; listed as interferon) was 56% and the “Positive responses proportion, K562” value ([13]; positive response = statistically significant increase of lymphocyte cytotoxicity index) was 6/18 = 33%. For the same compound, the “Positive responses coincidence: Donors selectively sensitive to the preparation” value [9, 17] was 1/17 = 6%, the “Positive responses coincidence: Interferon and alloferon sensitive donors” value [9, 17] was 9/17 = 53% and the “Positive responses proportion, K562 or A531” value ([9]; 17 healthy donors, either target) was 10/17 = 59%. The “Positive responses proportion, K562” value ([9]; 17 healthy donors, positive response = statistically significant increase of lymphocyte cytotoxicity index) was 7/17 = 41%, the “Cytotoxicity index, M ± m, %” value [9] was 5.0 ± 4.7% and the “Donors responding by statistically approved increase of cytotoxic activity against K562 or A431” value [9] was 10 donors. The “Positive responses proportion, A431” value ([10]; 18 cancer patients) was 8/18 = 44%, the “Cytotoxicity index, %” value [10, 15] was 93.5 ± 0.9% and the “Cytotoxicity index, %” value [10, 16] was 26.0 ± 8.9 %. The “Efficacy compared to alloferon at 0.05-0.5 ng/ml” value ([11]; 5 ng/ml) was “less effective”.

With VSGHGQHGVH [Alloferon 3] the “Average cytotoxicity index, M ± m, %” value [14] was 60.2 ± 2.7%.
